Measurements as given in patent US20260076973A1 (priority 2023, published 2026).
Structures can show the parent of a compound that is named as a salt. Where two headings read alike, the source gives them in different places.

System: SARS-CoV-2(delta variant)
Assay: microbe, parasite or virus in culture
Type: cell-based
[1] = Severe acute respiratory syndrome coronavirus 2, Vero C1008
[2] = Severe acute respiratory syndrome coronavirus 2, Vero C1008, read-out: IC50
[3] = Severe acute respiratory syndrome coronavirus 2, Vero C1008, read-out: IC90

| SMILES | IC50 [2] [nM] | IC90 [3] [nM] | other results |
| --- | --- | --- | --- |
| Cc1ccc(Nc2nc(N3CCOCC3)nc(N3CCCc4ccccc43)n2)cc1C [VIRADEM-15278, [4-(3,4-Dihydro-2-H-quinolin-1-yl)-6-morpholin-4-yl-[1,3,5]triazin-2-yl]-(3,4-dimethylphenyl)-amine] | – | – | IC50 (read-out: IC50): 194 nM; IC90 (read-out: IC90): 388 nM |
| COc1ccc(Nc2nc(Nc3cccc(C)c3)nc(N3CCOCC3)n2)cc1 [hydrochloride] | – | – | IC50 [1]: 338 nM; IC90 [1]: 356 nM |
| Cc1cccc(N2C(N3CCOCC3)=NC(N)=NC2Nc2cccc(F)c2)c1 (stereo not shown) [VIRADEM-11786, N-(3-Fluorophenyl)-6-morpholin-4-yl-N^1-m-tolyl-[1,3,5]triazine-2,4-diamine hydrochloride] | 371 | 396 | – |
| CC(=O)Nc1ccc(Nc2nc(Nc3ccc(C)c(C)c3)nc(N3CCOCC3)n2)cc1 [VIRADEM-11918, N-{4-[4-(3,4-Dimethylphenylamino)-6-morpholin-4-yl-[1,3,5]triazin-2-ylamino]phenyl}-acetamide] | 41 | 60 | – |
| COc1cccc(NC2N=C(N)N=C(N3CCOCC3)N2c2ccccc2)c1 (stereo not shown) [VIRADEM-12252, N-(3-Methoxyphenyl)-6-morpholin-4-yl-N^1-phenyl-[1,3,5]triazine-2,4-diamine hydrochloride] | 357 | 425 | – |
| CCOC(=O)c1ccc(Nc2nc(Nc3cc(C)cc(C)c3)nc(N3CCOCC3)n2)cc1 [VIRADEM-11934, 4-[4-(3,5-Dimethylphenylamino)-6-morpholin-4-yl-[1,3,5]-2-ylamino]-benzoic acid ethyl ester] | – | – | IC50 (read-out: IC50): 1020 nM; IC90 (read-out: IC90): 1240 nM |
| CC(=O)Nc1ccc(Nc2nc(Nc3ccc(Cl)cc3)nc(N3CCOCC3)n2)cc1 [VIRADEM-11847, N-{4-[4-(4-Chlorophenylamino)-6-morpholin-4-yl-[1,3,5]triazin-2-ylamino]-phenyl}-acetamide] | 36 | 46 | – |
| Cc1ccc(Nc2nc(N3CCCCCC3)nc(N3CCOCC3)n2)cc1 [VIRADEM-15229, (4-Azepan-1-yl-6-morpholin-4-yl-[1,3,5]triazin-2-yl)-p-tolyl-amine] | 1040 | 1190 | – |
| Cc1cccc(Nc2nc(Nc3ccc(C(C)C)cc3)nc(N3CCOCC3)n2)c1 [VIRADEM-12251, N-(4-Isoproylphenyl)-6-morpholin-4-yl-N^1-m-tolyl-[1,3,5]triazine-2,4-diamine hydrochloride] | – | – | IC50 (read-out: IC50): 951 nM; IC90 (read-out: IC90): 1170 nM |
| CCOc1ccc(NC2N=C(N)N=C(N3CCOCC3)N2c2cccc(C)c2)cc1 (stereo not shown) [VIRADEM-11794, N-(4-Ethoxyphenyl)-6-morpholin-4-yl-N^1-m-tolyl-[1,3,5]triazine-2,4-diamine hydrochloride] | 545 | 855 | – |
| CCOC(=O)c1ccc(Nc2nc(Nc3ccc(C)cc3)nc(N3CCOCC3)n2)cc1 [VIRADEM-11916, 4-(4-Morpholin-4-yl-6-p-tolylamino[1,3,5]-2-ylamino)-benzoic acid ethyl ester] | – | – | IC50 (read-out: IC50): 559 nM; IC90 (read-out: IC90): 707 nM |
| Cc1ccc(Nc2nc(Nc3ccc(C)c(C)c3)nc(N3CCOCC3)n2)cc1 [VIRADEM-11141] | 125 | 150 | – |
| CC(=O)c1cccc(Nc2nc(Nc3ccc(Cl)cc3)nc(N3CCOCC3)n2)c1 [VIRADEM-11882, 1-{3-[4-(4-chlorophenylamino)-6-morpholin-4-yl-[1,3,5]triazin-2-ylamino]-phenyl}-ethanone] | 470 | 635 | – |
| CC(=O)c1cccc(Nc2nc(Nc3ccccc3)nc(N3CCOCC3)n2)c1 [VIRADEM-12125, 1-[3-(4-Morpholin-4-yl-6-phenylamino-[1,3,5]triazin-2-ylamino)-phenyl]-ethanone hydrochloride] | 584 | 1370 | – |
| COC(=O)c1ccc(Nc2nc(Nc3cccc(OC)c3)nc(N3CCOCC3)n2)cc1 [VIRADEM-12329, 4-[4-(3-Methoxyphenylamino)-6-morpholin-4-yl-[1,3,5]triazin-2-ylamino]-benzoic acid methyl ester] | 368 | 465 | – |
| Cc1ccc(N2C(N3CCOCC3)=NC(N)=NC2Nc2cccc(F)c2)cc1 (stereo not shown) [VIRADEM-11785, N-(3-Fluorophenyl)-6-morpholin-4-yl-N^1-p-tolyl-[1,3,5]triazine-2,4-diamine hydrochloride] | 559 | 690 | – |
| Cc1ccc(Nc2nc(N3CCOCC3)nc(N3CCOCC3)n2)cc1C [VIRADEM-10884, (3,4-dimethylphenyl)-(4,6-dimorpholin-4-yl-[1,3,5]triazin-2-yl)-amine] | 389 | 477 | – |
| Cc1cccc(N2C(N3CCOCC3)=NC(N)=NC2Nc2cccc(Cl)c2)c1 (stereo not shown) [VIRADEM-11781, N-(3-Chlorophenyl)-6-morpholin-4-yl-N^1-m-tolyl-[1,3,5]triazine-2,4-diamine hydrochloride] | 1280 | 1370 | – |
| CCOC(=O)c1ccc(Nc2nc(Nc3ccc(C)c(C)c3)nc(N3CCOCC3)n2)cc1 [VIRADEM-11913, 4-[4-(3,4-Dimethylphenylamino)-6-morpholin-4-yl-[1,3,5]-2-ylamino]-benzoic acid ethyl ester] | – | – | IC50 (read-out: IC50): 245 nM; IC90 (read-out: IC90): 331 nM |
| Cc1cccc(N2C(N3CCOCC3)=NC(N)=NC2Nc2ccc(F)cc2)c1 (stereo not shown) [VIRADEM-11787, N-(4-Fluorophenyl)-6-morpholin-4-yl-N^1-m-tolyl-[1,3,5]triazine-2,4-diamine hydrochloride] | 404 | 446 | – |
| Cc1ccc(Nc2nc(Nc3cccc(C(F)(F)F)c3)nc(N3CCOCC3)n2)cc1C [VIRADEM-11914, N-(3,4-Dimethylphenyl)-6-morpholin-4-yl-N^1-(3-trifluoromethylphenyl)-[1,3,5]triazine-2,4-diamine] | 382 | 437 | – |
| Cc1cccc(N2C(N3CCOCC3)=NC(N)=NC2Nc2ccc(Cl)cc2)c1 (stereo not shown) [VIRADEM-11680, N-(4-Chlorophenyl)-6-morpholin-4-yl-N^1-m-tolyl-[1,3,5]triazine-2,4-diamine hydrochloride] | 428 | 521 | – |
| CCOC(=O)c1ccc(Nc2nc(Nc3ccc(F)cc3)nc(N3CCOCC3)n2)cc1 [VIRADEM-11660, 4-[4-(4-Fluorophenylamino)-6-morpholin-4-yl-[1,3,5]triazin-2-ylamino]benzoic acid ethyl ester] | 1860 | > 3000 | – |
